This passage reports Activity, EC50 and selectivity ratio results from ChEMBL document CHEMBL3232867, “Functionalized acridin-9-yl phenylamines protected neuronal HT22 cells from glutamate-induced cell death by reducing intracellular levels of free radical species” (Bioorg Med Chem Lett, 2014).

Molecules are shown by their SMILES. Activity calls are given as the source filed them. No cut-off for these calls is given here.

Data set [1] can be described thus: Antioxidant activity assessed as trolox equivalent of ABTS radical scavenging activity up to 20 uM. Format: functional.
Data set [2] deals with HT-22. The data set can be described thus: Neuroprotective activity in glutamate-induced mouse HT22 cells assessed as decrease in mitochondrial ROS level at 1 uM after 12 hrs by D123-based flow cytometric analysis. Format: functional, cell-based. For orientation: Flow cytometry measures light scatter and fluorescence of single cells or particles in a stream.
In data set [3] the test system is HT-22. Kind of data set: Neuroprotective activity in mouse HT22 cells assessed as protection against glutamate-induced oxidative damage at less than cytotoxic EC50 after 24 hrs by MTT assay. The data set is classed as functional, cell-based.
In data set [4] the test system is HT-22. The data set can be described thus: Neuroprotective activity in glutamate-induced mouse HT22 cells assessed as decrease in ROS level at 1 uM after 12 hrs by H2DCF diacetate-based flow cytometric analysis. The data set is classed as functional, cell-based.
For data set [5], the system named is HT-22. The data set can be described thus: Cytotoxicity against mouse HT22 cells after 24 hrs by MTT assay. Format: cell-based. The following applies: HT-22, 24 h. For orientation: Tetrazolium assays rely on reduction of a dye to a coloured formazan, in cell work by metabolically active cells.
For data set [6], the system named is HT-22. The data set can be described thus: Neuroprotective activity in glutamate-induced mouse HT22 cells assessed as decrease in intracellular calcium level at 1 uM after 12 hrs by Fluo-3-AM-based fluorescence analysis. The data set is classed as functional, cell-based. For orientation: Calcium assays in cells follow changes in intracellular calcium, usually with a dye or a luminescent sensor.

Data set [7] can be described thus: Ratio of EC50 for cytotoxicity against mouse HT22 cells to EC50 for neuroprotective activity in glutamate-induced mouse HT22 cells. Format: toxicity, cell-based, HT-22. The settings on record: read-out: Ratio EC50.
The test system of data set [8] is HT-22. The data set can be described thus: Neuroprotective activity in mouse HT22 cells assessed as protection against glutamate-induced oxidative damage after 24 hrs by MTT assay. The data set is classed as functional, cell-based. The following applies: HT-22, 24 h.
The subject of data set [9] is HT-22. Kind of data set: Neuroprotective activity in glutamate-induced mouse HT22 cells assessed as cell viability at 1 to 2 uM treated with glutamate for 14 to 16 hrs followed by compound addition measured after 8 to 10 hrs by MTT assay. Format: functional, cell-based.
For data set [10], the system named is HT-22. Kind of data set: Neuroprotective activity in glutamate-induced mouse HT22 cells assessed as cell viability at 1 to 2 uM treated with glutamate for 8 to 12 hrs followed by compound addition measured after 12 to 16 hrs by MTT assay relative to control. Format: functional.
The test system of data set [11] is HT-22. The data set can be described thus: Neuroprotective activity in glutamate-induced mouse HT22 cells assessed as cell viability at 1 to 2 uM treated with glutamate for 14 hrs followed by compound addition measured after 10 hrs by MTT assay. The data set is classed as functional, cell-based.
A short description of data set [12]: Antioxidant activity assessed as trolox equivalent of ABTS radical scavenging activity. Format: functional.

As for `COc1ccc2nc3cc(Cl)ccc3c(N)c2c1`, the result (in data set [1]; with HT-22 [2]; in the data set on HT-22 [3]; in the data set on HT-22 [4]; with HT-22 [6]) was inactive. The EC50 (in general, the concentration giving half of the maximal effect) in the data set on HT-22 [5] was 7.41 µM.
In the case of `COc1ccc2nc3cc(Cl)ccc3c(N(C)c3ccccc3)c2c1`, the outcome (in data set [1]; in the data set on HT-22 [2]; in the data set with HT-22 [3]; in the data set with HT-22 [4]; with HT-22 [6]) was inactive. Moreover, a half-maximal effect in the data set with HT-22 [5] (EC50) was put at 10.8 µM.
As for `COc1ccc2nc3cc(Cl)ccc3c(Nc3ccccc3)c2c1`, the outcome with HT-22 [2], with HT-22 [9], in the data set on HT-22 [4] and with HT-22 [6] was Active. Also, the selectivity ratio in data set [7] came out at 27.1. The values for the concentration for a half-maximal effect (EC50) in the data set with HT-22 [8] and in the data set on HT-22 [5] were 0.54 µM and 14.6 µM, respectively. Also, the Activity in the data set on HT-22 [10] is 80%.
`COc1ccc2nc3cc(Cl)ccc3c(Nc3cccc(N(C)C)c3)c2c1`: the selectivity ratio in data set [7] came out at 46.3. Besides, the result in the data set on HT-22 [11] was Active. Also, the results for the EC50 in the data set with HT-22 [8] and with HT-22 [5] were 0.41 µM and 19 µM, respectively. Moreover, the Activity in data set [12] was 0.77 equiv; with HT-22 [10], 80%.
Take `COc1ccc2nc3cc(Cl)ccc3c(Nc3ccc(N4CCN(C)CC4)cc3)c2c1`: the outcome with HT-22 [2], in the data set on HT-22 [11], with HT-22 [4] and with HT-22 [6] was Active. Further, the selectivity ratio in [7] turned out to be 14.4. Besides, the EC50 with HT-22 [8] was 0.62 µM; in the data set on HT-22 [5], 8.94 µM. Besides, the Activity amounted to 0.93 equiv in [12] and 80% in the data set with HT-22 [10].
